# Data reported in patent publication US8354425B2, “Azabicyclic carboxamide derivatives, preparation thereof and therapeutic use thereof” (Sanofi, priority 2008, dated 2013).
# How the values were obtained:
# [1] = molecular target: T1, TRPV1 receptor (Rattus norvegicus, UniProt O35433); experiment: Test of inhibition of the current induced with capsaicin on rat DRGs (whole-cell patch-clamp); format: cell-based; conditions: inhibition of control capsaicin response, newborn rat DRG neurones
# T1 construct: DRG neurones naturally express the TRPV1 receptor; endogenous in cells; host or cells: primary culture of newborn rat dorsal root ganglion neurones
# T1 sequence (O35433 whole entry): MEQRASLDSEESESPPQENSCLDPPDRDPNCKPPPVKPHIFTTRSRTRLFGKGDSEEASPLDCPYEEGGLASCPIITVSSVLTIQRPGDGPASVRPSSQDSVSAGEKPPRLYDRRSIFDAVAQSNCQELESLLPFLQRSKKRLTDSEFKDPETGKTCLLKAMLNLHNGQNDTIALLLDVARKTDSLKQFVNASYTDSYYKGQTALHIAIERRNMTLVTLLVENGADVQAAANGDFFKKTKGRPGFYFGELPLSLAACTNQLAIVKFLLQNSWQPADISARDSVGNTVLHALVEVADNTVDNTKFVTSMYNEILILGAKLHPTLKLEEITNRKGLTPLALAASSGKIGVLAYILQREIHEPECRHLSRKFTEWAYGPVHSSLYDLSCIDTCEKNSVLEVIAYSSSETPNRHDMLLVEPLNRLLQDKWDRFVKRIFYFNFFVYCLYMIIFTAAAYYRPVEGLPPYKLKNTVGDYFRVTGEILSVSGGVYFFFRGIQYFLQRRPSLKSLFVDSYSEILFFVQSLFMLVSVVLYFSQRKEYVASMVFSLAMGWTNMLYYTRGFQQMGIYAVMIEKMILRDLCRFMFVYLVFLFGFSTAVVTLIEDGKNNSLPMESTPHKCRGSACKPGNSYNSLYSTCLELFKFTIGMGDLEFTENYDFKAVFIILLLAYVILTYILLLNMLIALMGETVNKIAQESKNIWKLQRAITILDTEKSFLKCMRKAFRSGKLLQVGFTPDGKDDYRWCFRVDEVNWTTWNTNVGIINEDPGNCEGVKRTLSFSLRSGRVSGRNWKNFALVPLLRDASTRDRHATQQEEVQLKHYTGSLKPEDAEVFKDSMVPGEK
# Description: Test of inhibition of the current induced with capsaicin on rat DRGs • Primary culture of rat dorsal root ganglion (DRG) cells:
# DRG neurones naturally express the TRPV1 receptor.
# The primary cultures of newborn rat DRGs are prepared using 1-day-old rats. Briefly, after dissection, the ganglions are trypsinized and the cells dissociated by mechanical trituration. The cells are resuspended in an Eagle basal culture medium containing 10% foetal calf serum, 25 mM KCl, 2 mM glutamine, 100 μg/ml gentamicin and 50 ng/ml of NGF, and then deposited on glass slides coated with laminin (0.25×10^6 cells per slide), which are then placed in Corning 12-well dishes. The cells are incubated at 37° C. in a humidified atmosphere containing 5% CO2 and 95% air. […]
# The measuring chambers (volume 800 μl) containing the cell preparation are placed on the platform of an inverted microscope (Olympus IMT2) equipped with Hoffman optics (Modulation Contrast, New York) and observed at a magnification of 400×. […] The overall currents (membrane potential set at −60 mV) are recorded with an Axopatch 1D amplifier (Axon Instruments, Foster City, Calif.), connected to a PC running the Pclamp8 software (Axon Instrument). The current plots are recorded on paper and simultaneously digitized (sampling frequency 15 to 25 Hz) and acquired on the hard drive of the PC. […]
# [2] = molecular target: T2, local TRPV1 receptors (Mus musculus, UniProt Q704Y3); experiment: Pain induced by intraplantar administration of capsaicin to mice; format: in vivo; conditions: 10 mg/kg orally 120 minutes before intraplantar capsaicin, n=10
# T2 construct: from tissue; host or cells: living mouse, hind leg (intraplantar capsaicin injection)
# T2 sequence (Q704Y3 whole entry): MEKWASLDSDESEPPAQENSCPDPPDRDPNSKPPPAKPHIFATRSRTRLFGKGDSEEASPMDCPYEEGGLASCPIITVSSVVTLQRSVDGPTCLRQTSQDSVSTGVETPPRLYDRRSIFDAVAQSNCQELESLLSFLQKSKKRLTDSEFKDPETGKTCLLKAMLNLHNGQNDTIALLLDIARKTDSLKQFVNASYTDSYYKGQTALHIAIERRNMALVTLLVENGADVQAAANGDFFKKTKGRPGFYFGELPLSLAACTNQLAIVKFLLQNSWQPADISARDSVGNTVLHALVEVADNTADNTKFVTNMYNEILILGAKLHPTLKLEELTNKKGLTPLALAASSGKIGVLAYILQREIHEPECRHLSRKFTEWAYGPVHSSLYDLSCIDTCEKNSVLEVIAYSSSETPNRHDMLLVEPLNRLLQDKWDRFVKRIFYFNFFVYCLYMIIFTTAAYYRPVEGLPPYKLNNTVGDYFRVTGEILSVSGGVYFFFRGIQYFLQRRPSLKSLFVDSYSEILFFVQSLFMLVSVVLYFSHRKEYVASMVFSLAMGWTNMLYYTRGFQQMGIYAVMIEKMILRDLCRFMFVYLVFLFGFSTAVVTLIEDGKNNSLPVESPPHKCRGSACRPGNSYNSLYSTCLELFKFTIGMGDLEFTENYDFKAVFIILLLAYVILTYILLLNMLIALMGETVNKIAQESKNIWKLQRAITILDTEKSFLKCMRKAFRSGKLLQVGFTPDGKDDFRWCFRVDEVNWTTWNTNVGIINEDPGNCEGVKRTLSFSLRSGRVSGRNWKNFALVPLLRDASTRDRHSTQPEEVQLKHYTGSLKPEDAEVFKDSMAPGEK
# Description: Pain induced by intraplantar administration of capsaicin to mice.
# The intraplantar injection of capsaicin to mice rapidly produces short-lived nociceptive behaviour, which is reflected by licking, biting and flexing of the administered leg. These nociceptive responses are probably associated with the activation of the local TRPV1 receptors by the capsaicin.
# (E)-Capsaicin is initially diluted to 3 mg/ml in DMSO, and then diluted again for its final use to 1.5 μg/20 μl in physiological saline. The administration of solvent has no effect on the behaviour of the mouse. The capsaicin is injected into the hind legs of the animal, on the upper face.
# The test compounds are administered orally 120 minutes before the injection of capsaicin. Two hours after administration of the compounds, the mice are placed in a glass beaker. The nociceptive behaviour of the animals is then assessed immediately by the experimenter, and the duration of the capsaicin-induced behavioural manifestations is timed over a period of 2 minutes (licking and biting, total or partial flexure of the injected leg).
# For each compound, an inhibition corresponding to the mean of the capsaicin-induced nociceptive responses, in response to a dose of test product (expressed in mg/kg) administered orally to a sample of a given number (n) of mice, is determined. […]
structure (smiles),measurement,setting,value
"O=C(Nc1cc2cc[nH]c2cn1)c1cc2cc(F)ccc2n1Cc1cccc(F)c1 [Compound 8, N-(1H-Pyrrolo[2,3-c]pyrid-5-yl)-5-fluoro-1-[(3-fluorophenyl]methyl]-1H-indole-2-carboxamide]",inhibition at 0.1 µM,[1]; compound at 100 nM,67.5%
same,melting point,,203 to 204 °C
"O=C(Nc1cnc2[nH]ccc2c1)c1cc2cc(F)ccc2n1Cc1cccc(F)c1 [Compound 2, N-[1H-Pyrrolo[2,3-b]pyrid-5-yl]-5-fluoro-1-(3-fluorobenzyl)-1H-indole-2-carboxamide]",% inhibition of the capsaicin-induced nociceptive responses,[2],61% (±6%)
same,inhibition at 0.001 µM,[1]; compound at 1 nM,82%
